According to PMC7979488 (ChemMedChem, 2020):
Read-outs that look alike come from different tables or passages of the source.

Assays:
SARS-CoV-2 [1] = assay type: cell-based
SARS-CoV-2 [2] = assay type: cell-based; details: A549/ACE2 cells
[3] = Vero E6 cells, tested range 80 nM to 10 μM, two repeats

In the case of `O=C[C@H](C[C@@H]1CCNC1=O)NC(=O)[C@H](CC1CCCCC1)NC(=O)c1cc2ccccc2[nH]1` [11a, reference compound], the “concentration at which SARS-CoV-2-induced CPE was completely abolished” value (SARS-CoV-2 [1]; [3]) is reported as 10 µM.

In the case of `O=C[C@H](C[C@@H]1CCNC1=O)NC(=O)[C@H](Cc1ccccc1)NC(=O)/C=C/c1ccc(Cl)cc1F` [MPI2], the “concentration at which SARS-CoV-2-induced CPE was completely abolished” value (SARS-CoV-2 [1]; [3]) is reported as 10 µM.

For `CC(C)C[C@H](NC(=O)[C@@H](NC(=O)OCc1ccccc1)C(C)C)C(=O)N[C@H](C=O)C[C@@H]1CCNC1=O` [MPI3], the “complete prevention of CPE (in words)” value (SARS-CoV-2 [1]; Vero E6 cells, tested range 80 nM to 10 μM) was “not able to completely prevent CPE at all tested concentrations”.

For `CC(C)[C@H](NC(=O)OCc1ccccc1)C(=O)N[C@@H](CC1CCCCC1)C(=O)N[C@H](C=O)C[C@@H]1CCNC1=O` [MPI5], the “concentration at which SARS-CoV-2-induced CPE was completely abolished” value (SARS-CoV-2 [1]; [3]) was 5 µM, the “concentration for complete prevention of SARS-CoV-2-induced CPE” value (SARS-CoV-2 [2]; as stated in abstract) was 0.16 to 0.31 µM and the “concentration for complete abolition of CPE” value (SARS-CoV-2 [2]; tested range 80 nM to 10 μM) was 160 to 310 nM.

`CC(OC(C)(C)C)[C@H](NC(=O)OCc1ccccc1)C(=O)N[C@@H](Cc1ccccc1)C(=O)N[C@H](C=O)C[C@@H]1CCNC1=O` (stereo partly drawn) [MPI7] was tested, and the “concentration at which SARS-CoV-2-induced CPE was completely abolished” value (SARS-CoV-2 [1]; [3]) was 2.5 to 5 µM and the “complete abolition of CPE / potency (in words)” value (SARS-CoV-2 [2]; tested range 80 nM to 10 μM) was “not able to completely abolish CPE at all tested conditions”.

For GC376 [reference compound], the “concentration at which SARS-CoV-2-induced CPE was completely abolished” value (SARS-CoV-2 [1]) was 10 µM.
